Values after ≈ are worked out from the molar mass of the structure shown.
Key:
[1] = test system: Staphylococcus aureus; experiment: Induction of drug resistance in Staphylococcus aureus ATCC 29213 assessed as fold change in MIC incubated for 17 days; assay type: functional; settings: time 17.0 day
[2] = test system: Pseudomonas aeruginosa; experiment: Antibacterial activity Pseudomonas aeruginosa ATCC 9027 assessed as inhibition of bacterial growth incubated for 24 hrs by Muller hinton broth based dilution assay; assay type: functional
[3] = test system: Staphylococcus aureus; experiment: Antibacterial activity against Staphylococcus aureus ATCC 29213 assessed as inhibition of bacterial growth incubated for 24 hrs by Muller hinton broth based dilution assay; assay type: functional
[4] = test system: Staphylococcus aureus; experiment: Antibacterial activity against Methicillin-resistant Staphylococcus aureus N315 assessed as inhibition of bacterial growth incubated for 24 hrs by Muller hinton broth based dilution assay; assay type: functional
[5] = Hemolytic activity in rabbit RBC incubated for 1 hrs by fluorescence based microplate reader assay; assay type: toxicity, cell-based, Oryctolagus cuniculus, Erythrocyte; settings: rabbit red blood cells (erythrocytes)
[6] = test system: Acinetobacter baumannii; experiment: Antibacterial activity against Acinetobacter baumannii ATCC 17978 assessed as inhIbition of bacterial growth incubated for 24 hrs by Muller hinton broth based dilution assay; assay type: functional
[7] = test system: Staphylococcus aureus; experiment: Antibacterial activity against Methicillin-resistant Staphylococcus aureus NCTC10442 assessed as inhibition of bacterial growth incubated for 24 hrs by Muller hinton broth based dilution assay; assay type: functional
[8] = test system: Escherichia coli; experiment: Antibacterial activity Escherichia coli ATCC 25922 assessed as inhibition of bacterial growth incubated for 24 hrs by Muller hinton broth based dilution assay; assay type: functional
[9] = test system: Acinetobacter baumannii; experiment: Antibacterial activity against Acinetobacter baumannii R2889 assessed as inhIbition of bacterial growth incubated for 24 hrs by Muller hinton broth based dilution assay; assay type: functional
[10] = test system: Staphylococcus aureus; experiment: Antibacterial activity against Staphylococcus aureus ATCC 29213 assessed as inhibition of bacterial growth incubated for 24 hrs in the presence of 12.5 ug/mL Zn2+ by Muller hinton broth based dilution assay; assay type: functional
[11] = test system: Escherichia coli; experiment: Antibacterial activity Escherichia coli ATCC 25922 assessed as inhibition of bacterial growth incubated for 24 hrs in the presence of 12.5 ug/mL Zn2+ by Muller hinton broth based dilution assay; assay type: functional
[12] = test system: Staphylococcus aureus; experiment: Antibacterial activity against Methicillin-resistant Staphylococcus aureus NCTC10442 assessed as inhibition of bacterial growth incubated for 24 hrs in the presence of 12.5 ug/mL Zn2+ by Muller hinton broth based dilution assay; assay type: functional
[13] = Hemolytic activity in rabbit RBC incubated for 1 hrs in the presence of 12.5 ug/mL Zn2+ by fluorescence based microplate reader assay; assay type: toxicity, cell-based, Oryctolagus cuniculus, Erythrocyte; settings: rabbit red blood cells (erythrocytes)
[14] = test system: Pseudomonas aeruginosa; experiment: Antibacterial activity Pseudomonas aeruginosa ATCC 9027 assessed as inhibition of bacterial growth incubated for 24 hrs in the presence of 12.5 ug/mL Zn2+ by Muller hinton broth based dilution assay; assay type: functional
[15] = test system: Staphylococcus aureus; experiment: Antibacterial activity against Methicillin-resistant Staphylococcus aureus N315 assessed as inhibition of bacterial growth incubated for 24 hrs in the presence of 12.5 ug/mL Zn2+ by Muller hinton broth based dilution assay; assay type: functional
[16] = test system: Acinetobacter baumannii; experiment: Antibacterial activity against Acinetobacter baumannii R2889 assessed as inhIbition of bacterial growth incubated for 24 hrs in the presence of 12.5 ug/mL Zn2+ by Muller hinton broth based dilution assay; assay type: functional
[17] = test system: Acinetobacter baumannii; experiment: Antibacterial activity against Acinetobacter baumannii ATCC 17978 assessed as inhIbition of bacterial growth incubated for 24 hrs in the presence of 12.5 ug/mL Zn2+ by Muller hinton broth based dilution assay; assay type: functional
[18] = test system: Staphylococcus aureus; experiment: Antibacterial activity against Staphylococcus aureus ATCC 29213 in cyclophosphamide immunosuppressed C57BL/6 mouse model of bacterial keratitis assessed as log reduction in viable bacterial count in infected cornea at 5 % pre-infected with bacteria for 24 hrs followed by topical administration of compound four times a day for 3 days; assay type: functional; settings: route top, time 3 day

SMILES	fold change (FC) [1]	MIC [2]	MIC [3]	MIC [4]	HC50 at 1 h [5]	MIC [6]	MIC [7]	MIC [8]	MIC [9]	MIC [10]	MIC [11]	MIC [12]	HC50 at 1 h [13]	MIC [14]	MIC [15]	MIC [16]	MIC [17]	log(activity) [18]
CCn1cc(C(=O)O)c(=O)c2cc(F)c(N3CCNCC3)cc21	32	–	–	–	–	–	–	–	–	–	–	–	–	–	–	–	–	–
CC(C)=CCn1c2ccccc2c2c(OCC3CO3)cccc21 (stereo not drawn)	–	> 50 µg/mL	> 50 µg/mL	> 50 µg/mL	> 200 µg/mL	> 50 µg/mL	> 50 µg/mL	> 50 µg/mL	> 50 µg/mL	–	–	–	–	–	–	–	–	–
CCCn1c2ccccc2c2c(OCC3CO3)cccc21 (stereo not drawn)	–	> 50 µg/mL	> 50 µg/mL	> 50 µg/mL	> 200 µg/mL	> 50 µg/mL	> 50 µg/mL	> 50 µg/mL	> 50 µg/mL	–	–	–	–	–	–	–	–	–
CCCCCCCn1c2ccccc2c2c(OCC(O)CN(Cc3ccccn3)Cc3ccccn3)cccc21 (stereo not drawn)	–	> 50 µg/mL	1.56 µg/mL (≈ 2.91 µM)	1.56 µg/mL (≈ 2.91 µM)	> 200 µg/mL	> 50 µg/mL	1.56 µg/mL (≈ 2.91 µM)	> 50 µg/mL	25 µg/mL (≈ 46.6 µM)	1.56 µg/mL	3.12 µg/mL	1.56 µg/mL	> 200 µg/mL	> 50 µg/mL	0.78 µg/mL	25 µg/mL	> 50 µg/mL	–
Cn1c2ccccc2c2c(OCC3CO3)cccc21 (stereo not drawn)	–	> 50 µg/mL	> 50 µg/mL	> 50 µg/mL	> 200 µg/mL	> 50 µg/mL	> 50 µg/mL	> 50 µg/mL	> 50 µg/mL	–	–	–	–	–	–	–	–	–
CCCCCCCCCn1c2ccccc2c2c(OCC(O)CN(Cc3ccccn3)Cc3ccccn3)cccc21 (stereo not drawn)	–	> 50 µg/mL	3.12 µg/mL (≈ 5.53 µM)	0.78 µg/mL (≈ 1.38 µM)	> 200 µg/mL	> 50 µg/mL	6.25 µg/mL (≈ 11.1 µM)	> 50 µg/mL	> 50 µg/mL	3.12 µg/mL	> 50 µg/mL	6.25 µg/mL	> 200 µg/mL	> 50 µg/mL	0.78 µg/mL	> 50 µg/mL	12.5 µg/mL	–
CCN(CC)CC(O)COc1cccc2c1c1ccccc1n2CC=C(C)C (stereo not drawn)	–	> 50 µg/mL	6.25 µg/mL (≈ 16.4 µM)	6.25 µg/mL (≈ 16.4 µM)	–	50 µg/mL (≈ 131 µM)	6.25 µg/mL (≈ 16.4 µM)	> 50 µg/mL	25 µg/mL (≈ 65.7 µM)	6.25 µg/mL	50 µg/mL	6.25 µg/mL	–	> 50 µg/mL	6.25 µg/mL	25 µg/mL	50 µg/mL	–
CCCn1c2ccccc2c2c(OCC(O)CN(Cc3ccccn3)Cc3ccccn3)cccc21 (stereo not drawn)	–	> 50 µg/mL	3.12 µg/mL (≈ 6.5 µM)	1.56 µg/mL (≈ 3.25 µM)	> 200 µg/mL	6.25 µg/mL (≈ 13 µM)	3.12 µg/mL (≈ 6.5 µM)	12.5 µg/mL (≈ 26 µM)	6.25 µg/mL (≈ 13 µM)	0.78 µg/mL	6.25 µg/mL	1.56 µg/mL	> 200 µg/mL	6.25 µg/mL	0.78 µg/mL	6.25 µg/mL	3.12 µg/mL	–
CN[C@H](CC(C)C)C(=O)N[C@H]1C(=O)N[C@@H](CC(N)=O)C(=O)N[C@H]2C(=O)N[C@H]3C(=O)N[C@H](C(=O)N[C@H](C(=O)O)c4cc(O)cc(O)c4-c4cc3ccc4O)[C@H](O)c3ccc(c(Cl)c3)Oc3cc2cc(c3O[C@@H]2O[C@H](CO)[C@@H](O)[C@H](O)[C@H]2O[C@H]2C[C@](C)(N)[C@H](O)[C@H](C)O2)Oc2ccc(cc2Cl)[C@H]1O [VANCOMYCIN]	–	> 50 µg/mL	0.78 µg/mL (≈ 0.538 µM)	1.56 µg/mL (≈ 1.08 µM)	–	50 µg/mL (≈ 34.5 µM)	1.56 µg/mL (≈ 1.08 µM)	> 50 µg/mL	> 50 µg/mL	0.78 µg/mL	> 50 µg/mL	1.56 µg/mL	–	> 50 µg/mL	1.56 µg/mL	> 50 µg/mL	50 µg/mL	5.4
O=C(O)c1cn(C2CC2)c2cc(N3CCNCC3)c(F)cc2c1=O [CIPROFLOXACIN]	–	0.195 µg/mL (≈ 0.589 µM)	0.39 µg/mL (≈ 1.18 µM)	0.39 µg/mL (≈ 1.18 µM)	–	0.39 µg/mL (≈ 1.18 µM)	0.39 µg/mL (≈ 1.18 µM)	0.049 µg/mL (≈ 0.148 µM)	0.78 µg/mL (≈ 2.35 µM)	0.39 µg/mL	0.049 µg/mL	0.39 µg/mL	–	0.195 µg/mL	0.39 µg/mL	0.78 µg/mL	0.39 µg/mL	–
OC(COc1cccc2[nH]c3ccccc3c12)CN(Cc1ccccn1)Cc1ccccn1 (stereo not drawn)	–	> 50 µg/mL	25 µg/mL (≈ 57 µM)	25 µg/mL (≈ 57 µM)	> 200 µg/mL	50 µg/mL (≈ 114 µM)	25 µg/mL (≈ 57 µM)	> 50 µg/mL	> 50 µg/mL	6.25 µg/mL	> 50 µg/mL	12.5 µg/mL	> 200 µg/mL	12.5 µg/mL	6.25 µg/mL	> 50 µg/mL	50 µg/mL	–
Cn1c2ccccc2c2c(OCC(O)CN(Cc3ccccn3)Cc3ccccn3)cccc21 (stereo not drawn)	–	> 50 µg/mL	12.5 µg/mL (≈ 27.6 µM)	6.25 µg/mL (≈ 13.8 µM)	> 200 µg/mL	12.5 µg/mL (≈ 27.6 µM)	12.5 µg/mL (≈ 27.6 µM)	50 µg/mL (≈ 110 µM)	25 µg/mL (≈ 55.2 µM)	3.12 µg/mL	50 µg/mL	6.25 µg/mL	> 200 µg/mL	12.5 µg/mL	1.56 µg/mL	25 µg/mL	12.5 µg/mL	–
